The data set can be described thus: photoluminescence quantum yield (fraction); solvent given as SMILES.

These results are taken from the Deep4Chem optical property database.

As to `CC(C)(C)c1ccc2c(c1)c1cc(C(C)(C)C)ccc1n2-c1ccc(N(c2ccc(-c3ccc(-c4ccc(-c5ccc(-c6ccc(N(c7ccc(-n8c9ccc(C(C)(C)C)cc9c9cc(C(C)(C)C)ccc98)cc7)c7ccc(-n8c9ccc(C(C)(C)C)cc9c9cc(C(C)(C)C)ccc98)cc7)cc6)cc5)c5nsnc45)cc3)cc2)c2ccc(-n3c4ccc(C(C)(C)C)cc4c4cc(C(C)(C)C)ccc43)cc2)cc1`, where the note is “in ClCCl”, the photoluminescence quantum yield was 0.03.
Take `CCCCC(CC)COc1ccc2nc(-c3ccc(-c4cccs4)s3)sc2c1` (stereo unspecified): the photoluminescence quantum yield (in ClCCl) came out at 0.2.
Compound `CCN(CC)c1ccc2cc(-c3nc4ccccc4s3)c(=O)oc2c1` yielded a photoluminescence quantum yield (in C1CCCCC1) of 0.59; a photoluminescence quantum yield (in CC1CCCCC1) of 0.56; a photoluminescence quantum yield (in CC#N) of 0.43; a photoluminescence quantum yield (in CCC(C)CC) of 0.57; a photoluminescence quantum yield (in CCCCCC) of 0.57; a photoluminescence quantum yield (in CCOC(C)=O) of 0.47.
As to `CC(C)[Si]1(C(C)C)c2cc(C=O)ccc2-c2ccc(N(C)C)cc21`, the photoluminescence quantum yield is 0.08 (in C1CCCCC1); 0.81 (in CC#N); 0.4 (in CCO); 0.79 (in CCOCC); 0.57 (in CS(C)=O); 0.71 (in ClCCl). Besides, the photoluminescence quantum yield (in c1ccccc1) worked out at 0.75.
On to `CN(C)c1ccc(/C=C/C=N/N=C/c2ccc3ccc4cccc5ccc2c3c45)cc1`, for which the photoluminescence quantum yield reads like this: (in CC#N) 0.032; (in CC(C)(C)O) 0.02; (in CC(C)=O) 0.01; (in CC(C)O) 0.015; (in CCCCO) 0.018; (in CO) 0.025. Also, the photoluminescence quantum yield reads like this: (in CS(C)=O) 0.044; (in ClC(Cl)Cl) 0.007; (in ClCCl) 0.008; (in O) 0.016.
Take `CC(C)(C)c1ccc2c3ccccc3c3cncnc3c2c1`: under “in ClCCl”, the photoluminescence quantum yield was 0.03.
Consider `NNC(=O)NNN1C(=O)c2cc(S(=O)(=O)[O-])cc3c(N)c(S(=O)(=O)[O-])cc(c23)C1=O`, for which the photoluminescence quantum yield amounted to 0.06 (in C1COCCO1); 0.49 (in CC#N); 0.29 (in CC(C)=O); 0.62 (in CC(C)O); 0.75 (in CCCCCCCCO); 0.54 (in CCO). Besides, the photoluminescence quantum yield was found to be 0.03 (in CCOC(C)=O); 0.25 (in CO); 0.59 (in CS(C)=O); 0.21 (in O); 0.5 (in OCCO); 0.26 (in c1ccncc1).
Turning to `COc1ccccc1-c1nc2c3cccnc3c3ncccc3c2n1-c1ccccc1`, the photoluminescence quantum yield (in Cc1ccccc1) was 0.064.
Take `CC(C)(C)c1ccc(C2=c3c(c4ccc(C(C)(C)C)cc4c4cc(C(C)(C)C)ccc34)=[N+]3C2=C(c2ccccc2)c2c(-c4ccc(C(C)(C)C)cc4)c4c5ccc(C(C)(C)C)cc5c5cc(C(C)(C)C)ccc5c4n2[B-]3(F)F)cc1`: the photoluminescence quantum yield is, setting by setting: (in C1CCCCC1) 0.44; (in C1CCOC1) 0.45; (in CC#N) 0.27; (in Cc1ccccc1) 0.46; (in ClCCl) 0.45.
Turning to `C[C@@]12SC(Cl)=CC1=c1nc(-c3ccccc3)[nH]c1=C1C=C(Cl)S[C@]12C`, the photoluminescence quantum yield (in CC#N) was determined as 0.014.
`Oc1ccc2ccc(C3(O)C4CC5CC(C4)CC3C5)cc2c1` (stereo unspecified) returned a photoluminescence quantum yield (in CC#N) of 0.3.
On to `CCn1c2ccccc2c2cc(-c3cc(-c4ccc5c(c4)c4ccccc4n5CC)nc(OC)n3)ccc21`, for which the photoluminescence quantum yield is, setting by setting: (in C1CCOC1) 0.48; (in CCOC(C)=O) 0.76; (in CN(C)C=O) 0.69; (in Cc1ccccc1) 0.68; (in ClCCl) 0.69.
